Data published in US20110166070A1, “METHOD OF PREVENTING PREMATURE DELIVERY” (priority 2008, published 2011).

Columns and labels:
uterine contractions = details: cited from earlier work; for stopping uterine contractions: vaginal progesterone, injection of 17 alpha-hydroxyprogesterone caproate
women = details: cited from earlier work
[1] = tested on: healthy primiparous women at ≧40 weeks gestation; assay: Clinical study: change from baseline in Bishop score and cervical dilation (cervical ripening), 24 h IV infusion; assay type: in vivo, human; design: key to Total Bishop Score - Change from Baseline, Minimum / Total Bishop Score - Change from Baseline, Maximum / Total Bishop Score - Change from Baseline, Mean / Total Bishop Score - Change from Baseline, Median: Bishop score points; total score ranges 0 to 13; details: for Total Bishop Score - Change from Baseline, Maximum / Total Bishop Score - Change from Baseline, Median / Total Bishop Score - Change from Baseline, Minimum / Total Bishop Score - Change from Baseline, Mean: 75 μg/kg/d IV, ITT
Experimental: Overview of the Clinical Study. The current study was designed with two objectives. The first was to determine the safety of intravenous administration of recombinant human relaxin in women at term for 24 hours. The second objective was to determine whether a high dose of relaxin administered by this method for 24 hours could ripen the cervix or induce labor. The primary efficacy endpoint was change from baseline in Bishop score, which is a composite, well accepted measurement of cervical ripening (Bishop, 1964). The score has 5 components, all of which contribute to the cervical changes necessary for vaginal delivery of the baby: dilation, effacement, station, consistency and position of cervix.
Study Subjects. Study subjects were healthy primiparous women at ≧40 weeks gestation who were admitted to the hospital for scheduled induction of labor. This study was conducted in compliance with the requirements of the protocol, International Conference on Harmonization (ICH), Good Clinical Practices (GCP), FDA, local regulations and BAS Medical, Inc.'s standard operating procedures (SOP). The investigators were responsible for obtaining informed consent from each patient participating in the study. All pertinent aspects of the study were explained to the patient before he or she signed the informed consent form. Informed consent was approved by local ethics committees and was obtained from the patient before any activity or treatment was undertaken which was not part of routine care. This included, but was not limited to, the performance of diagnostic or therapeutic procedures and the administration of the first dose of the study medication.
Part A was a multicenter, randomized, double-blind, placebo-controlled, dose escalation study of 18 subjects at ≧40 weeks gestation and who were scheduled for induction. Doses of 7.5, 25 and 75 mcg/kg/day of relaxin were tested. Subjects were treated in cohorts of 6 and randomly assigned to receive relaxin or placebo in a 4:2 ratio, respectively. Dose escalation to the next dose level occurred once safety data was reviewed.
(§1) Eligible patients were admitted to the hospital at least 24-hours prior to scheduled induction. Either relaxin or matching placebo was administered by continuous intravenous infusion for 24 hours prior to induction. Subjects were monitored throughout the administration of study medication for blood pressure and heart rate, as well as for uterine contractions and the onset of labor. Fetal nonstress testing and heart rate monitoring were conducted for evaluation of fetal well-being. Blood samples were drawn for serum chemistry and hematology at baseline, 12 and 24 hr of dosing, and at 2 days, 1 week and 4 weeks after delivery. Samples for the evaluation of serum relaxin levels were drawn at baseline, 30 minutes, 1, 4, 6, 12, and 24 hr of dosing and a sample of cord blood was also drawn for relaxin measurement. A sample was also drawn from the study subject at 2 days post-delivery. Samples for measurement of development of anti-relaxin antibodies were drawn prior to dosing and at 1 and 4 weeks post-delivery. Neonates were evaluated for relaxin levels at 2 days and for the presence of anti-relaxin antibodies at 1 and 4 weeks.
(§2) Part B of the study was a multi-center, randomized, double-blind, placebo-controlled, parallel-group study of 50 subjects at ≧40 weeks gestation and who were scheduled for induction. Subjects were randomized in a 1:1 ratio to the most appropriate dose of relaxin determined from Part A or to placebo. As in Part A, eligible subjects were administered an intravenous infusion of relaxin or placebo for 24 hours prior to induction. Subjects and neonates were evaluated in a manner identical to that in Part A for all assessments.
The primary efficacy endpoint was change from baseline in Bishop score at 6, 12 and 24 hours (or end of study drug administration). […]

[2] = tested on: healthy primiparous women at ≧40 weeks gestation; assay: Clinical study: secondary efficacy endpoints related to delivery; assay type: in vivo, human
Experimental: as §1, §2
The primary efficacy endpoint was change from baseline in Bishop score at 6, 12 and 24 hours (or end of study drug administration). The score ranges from 0 (absence of any cervical changes) to a maximum of 13, representing a cervix that is completely dilated (>5 cm), effaced (>80%), soft, at a +1 or +2 station, and anteriorly positioned (Bishop, 1964). A number of secondary efficacy endpoints were also explored: Time to complete dilation; proportion of subjects with Bishop score change>3; proportion of subjects with Bishop score>5; proportion of subjects with Bishop score>8; time to active labor; time to delivery (vaginal or c-section); frequency of uterine contractions; incidence of uterine hyperstimulation requiring terbutaline treatment or discontinuation of study drug (relaxin or placebo) infusion; incidence of spontaneous labor; rates of c-section; incidence of abnormal fetal heart rate tracings; changes from baseline in systolic and diastolic blood pressure; changes from baseline in serum creatinine and predicted creatinine clearance as determined by the Cockroft-Gault formula.
Statistical Analysis. Analyses were conducted on the Intent-to-treat (ITT) population, which consisted of all randomized subjects and on the Per-protocol (PP) population, which consisted of all randomized subjects who received study medication for at least 18 hours (75% compliance) and had baseline and 24 hour (or end of treatment) assessments of the Bishop Score. For efficacy comparisons, the patients from Part A that received the active dose administered in Part B are pooled with the patients from Part B (pooled relaxin group) as are all placebo patients from parts A and B (pooled placebo group).

[3] = Serum relaxin concentrations (Relaxin ELISA); assay type: in vivo, human
Experimental: as §1
Relaxin ELISA. The measurement of serum relaxin concentrations is based on an enzyme immunoassay technique using 96-well microtiter plates coated with affinity purified goat-anti-relaxin antibodies. Pre-diluted controls and unknown samples were pipetted into the wells of the microtiter plate and incubated at 2-8° C. allowing for any relaxin present to bind to the anti-relaxin antibodies. After an overnight incubation the plates were washed to remove any non-reactive serum components. […] After a 20-minute incubation, an aliquot of 2M sulfuric acid was added to stop the color reaction and the absorbance was measured at 450 nm (reference 650 nm) using a plate spectrophotometer. […] The relaxin levels were quantified according to a standard curve generated by measuring purified recombinant relaxin in a 20% human serum matrix utilizing a four-parameter curve fit equation. […]

[4] = tested on: healthy primiparous women at ≧40 weeks gestation; assay: Clinical study: safety (adverse events in subjects, fetuses, neonates); assay type: in vivo, human; details: for Serious adverse events in neonates (number): none related to the study drug
Experimental: Safety. Safety was assessed by means of reported and observed adverse events, physical examination and 12-lead ECG findings, vital sign measurements, and the results of clinical laboratory assessments. Serum clinical chemistry samples were taken at pre-dose, 12 and 24 hours following the start of dosing, 2 days, 1 week and 4 weeks postpartum. Maternal vital signs included temperature, heart rate and blood pressure. These evaluations were performed at screening, pre-dose, during dosing, 24-48 hours post-dosing and at 2 days, 1 week and 4 weeks post-partum. Measurements during the 24-48 hours post-dosing period were taken at 28, 32, 36, 40, 44 and 48 hours. Neonatal vital signs included temperature, pulse, respiration and blood pressure. All vital signs measurements were done at delivery, 2 days, 1 week and 4 weeks post-partum.
Adverse events in study subjects were recorded according to the time of onset, i.e. dosing period (0-24 hours), 24-hours post-infusion (24-48 hours) and follow-up (>48 hours). Adverse events reported in fetuses and in neonates were also summarized by treatment group. For laboratory tests (hematology, serum chemistry, urinalysis), vital signs, physical examination and ECGs summary statistics were provided for baseline and changes from Baseline for each scheduled time by treatment group. Post-hoc repeated measure analyses of systolic and diastolic blood pressure were also performed.

myometrium = details: in vitro, nonpregnant and pregnant uteri (MacLennan 1991); cited from earlier work
nonpregnant women = details: administered intravaginally, cited from earlier work
[5] = Last Obs., pooled relaxin group
[6] = pooled relaxin group, p 0.153 vs placebo
[7] = pooled relaxin group, p 0.213 vs placebo

For CCCCCC(=O)O[C@]1(C(C)=O)CC[C@H]2[C@@H]3CCC4=CC(=O)CC[C@]4(C)[C@H]3CC[C@@]21C [17 alpha-hydroxyprogesterone caproate], the “safety questioned by the FDA” value (uterine contractions; Meis et al. 2003, FDA advisory committees 2006) is given as “increase in miscarriage and fetal death” and the stopping uterine contractions (uterine contractions) is given as “effective in stopping uterine contractions”.

In the case of CC(=O)[C@H]1CC[C@H]2[C@@H]3CCC4=CC(=O)CC[C@]4(C)[C@H]3CC[C@]12C [progesterone], the stopping uterine contractions (uterine contractions) is listed as “effective in stopping uterine contractions”.

In the case of porcine relaxin, the spontaneous labor (women; intracervical gel vs placebo (MacLennan 1986)) is listed as “more likely to go into spontaneous labor” and the “cervical effacement and time to delivery” value (women; intracervical pellet, randomized double-blind controlled trial (Evans et al. 1983)) is listed as “greater cervical effacement (thinning) and a shorter time to delivery”.

For relaxin, the “Total Bishop scores in the lower relaxin dose groups” value ([1]; 7.5 and 25 μg/kg/day, Part A, data not shown) was “no different than that seen in the pooled placebo group”, the “Total Bishop Score - Change from Baseline, Maximum” value ([1]; 6 hours, pooled relaxin group) was 9 and the “Total Bishop Score - Change from Baseline, Median” value ([1]; 6 hours, pooled relaxin group) was 1.00. The “Total Bishop Score - Change from Baseline, Minimum” value ([1]; 6 hours, pooled relaxin group) was 0, the “Total Bishop Score - Change from Baseline, Mean” value ([1]; 6 hours, pooled relaxin group, P 0.2407 vs pooled placebo) was 1.55 and the “Total Bishop Score - Change from Baseline, Maximum” value ([1]; 12 hours, pooled relaxin group) was 7. The “Total Bishop Score - Change from Baseline, Median” value ([1]; 12 hours, pooled relaxin group) was 2.00, the “Total Bishop Score - Change from Baseline, Minimum” value ([1]; 12 hours, pooled relaxin group) was 0 and the “Total Bishop Score - Change from Baseline, Mean” value ([1]; 12 hours, pooled relaxin group, P 0.1085 vs pooled placebo) was 2.11. The “increase in cervical dilation from the initial dilation” value ([1]; 24 hour time point, pooled relaxin group 75 mcg/kg/day IV (placebo 1.39 cm)) was 0.69 cm, the “Total Bishop Score - Change from Baseline, Maximum” value ([1]; 24 hours, pooled relaxin group) was 7 and the “Total Bishop Score - Change from Baseline, Median” value ([1]; 24 hours, pooled relaxin group) was 4.00. The “Total Bishop Score - Change from Baseline, Minimum” value ([1]; 24 hours, pooled relaxin group) was 0, the “Total Bishop Score - Change from Baseline, Mean” value ([1]; 24 hours, pooled relaxin group, P 0.2507 vs pooled placebo) was 3.26 and the “Total Bishop Score - Change from Baseline, Mean” value ([1]; Last Obs. (last available value post-baseline), pooled relaxin group, P 0.4900 vs pooled placebo) was 3.59. The “Total Bishop Score - Change from Baseline, Maximum” value [1, 5] was 9, the “Total Bishop Score - Change from Baseline, Median” value [1, 5] was 4.00 and the “Total Bishop Score - Change from Baseline, Minimum” value [1, 5] was 0. The “Bishop score, difference between pooled relaxin and placebo groups” value ([1]; any of the observation times (6, 12, 24 hours)) was “no statistically significant differences”, the “cervical dilation compared to the placebo group” value ([1]; pooled relaxin group, p<0.024 by t-test) was “significantly reduced” and the “Time to Vaginal Delivery (mean + SD)” value ([2]; pooled relaxin group, n = 20, p 0.644 vs placebo) was 62 ± 40 h. The “Time to Onset of Active Labor” value ([2]; pooled relaxin group, n = 26, p 0.412 vs placebo) was 53 h, the “Time to Delivery for Vaginal + C-section (mean + SD)” value ([2]; pooled relaxin group, n = 29, p 0.251 vs placebo) was 69 ± 40 h and the “Incidence of Vaginal Deliveries” value [2, 6] was “(69%)”. For the same molecule, the “Incidence of Vaginal Deliveries (subjects/total)” value [2, 6] was 20/29, the “Incidence of Spontaneous Labor” value [2, 7] was “(41%)” and the “Incidence of Spontaneous Labor (subjects/total)” value [2, 7] was 12/29. For the same molecule, the “effect on incidence or time to vaginal delivery, incidence of spontaneous labor or time to the onset of labor” value ([2]; relaxin infusion vs placebo) was “did not significantly affect”, the “serum relaxin concentration post partum” value ([3]; 2 days post partum) was “just above levels of detection” and the “peak mean serum relaxin concentration” value ([3]; relaxin group, 75 mcg/kg/day IV infusion, at 12 hours of dosing) was 13.0 ng/mL. For the same molecule, the “Mean serum relaxin concentration at baseline” value ([3]; relaxin group, baseline, reflecting endogenous relaxin levels) was 0.293 ng/mL, the “Serious adverse events in neonates (number)” value ([4]; 7.5 mcg/kg/d dose group) was “one” and the “adverse effects over the entire dosage range” value ([4]; intravenous, 7.5-75 mcg/kg/day, pregnant women at term) was “no relevant adverse effects”. For the same molecule, the “Serious adverse events in neonates (number)” value ([4]; pooled relaxin group (75 mcg/kg/day)) was 4, the “Serious adverse events in fetuses (number of events)” value ([4]; pooled relaxin group, fetal hypoxia of moderate severity, not related to the study drug) was “Two” and the “effect on fetal heart rate” value ([4]; relaxin treatment) was “no effect”. For the same molecule, the “effect on myometrial contractions” value (myometrium) was “inhibits myometrial contractions of nonpregnant uteri, but does not affect the myometrium of pregnancy”, the “effect on cervical ripening” value (nonpregnant women; nonpregnant women) was “did not show any effect” and the safety of administration (nonpregnant women) was “safe and associated with minimal adverse side effects”. For the same molecule, the “serum levels of relaxin after treatment” value (nonpregnant women) was “did not increase”.
